According to patent publication US20150218212A1, “FLUORINATED EPOXYKETONE-BASED TETRAPEPTIDE COMPOUNDS AND USES THEREOF AS PROTEASOME INHIBITORS” (FLUORINOV PHARMA INC., priority 2012, published 2015):

Tests used:
[1] = target: T1, proteasome Trypsin-like (T-L) activity (Mus musculus, UniProt P70195+Q9R1P1); assay: Pharmacodynamic proteasome activity in murine red blood cells, T-L; type: in vivo, NOD/SCID mice; conditions: iv, mice, 2 mg/kg i.v., time 0, read-out: Trypsin-like (T-L) mean residual activity relative to vehicle treated controls
T1 construct: RBCs were lysed with assay lysis buffer and incubated on ice for 30 minutes; from tissue; host or cells: red blood cells of NOD/SCID mice
Protocol: Cells were harvested by centrifugation at 1,200 rpm at room temperature. Cell pellets were washed with PBS (phosphate buffered saline) and lysed with assay lysis buffer (50 mM HEPES (N-2-hydroxyethylpiperazine-N′-2-ethanesulfonic acid), pH 7.5; 150 mM NaCl; 1% Triton X-100; 2 mM ATP). Cell lysates were incubated on ice for 30 minutes, mixed by vortex every 5 minutes, and then centrifuged at 12,000 g for 10 minutes. The supernatant was transferred to a 96-well plate. For each assay, 10 μg of total protein were incubated for 1 hour at 37° C. with increasing concentrations (1 nM to 10 μM) of test compound diluted in assay buffer (50 mM tris-HCl (tris(hydroxymethyl)aminomethane-HCl), pH 7.5; 150 mM NaCl). DMSO alone was used as a control in every assay plate. After incubation, a specific fluorogenic proteasome substrate was added to each assay reaction at a final concentration of 40 μM in a total volume of 100 μL. N-Succinyl-Leu-Leu-Val-Tyr-7-amino-4-methylcoumarin (Suc-Leu-Leu-Val-Tyr-AMC) was used for measuring chymotrypsin-like (CT-L) activity, t-butoxycarbonyl-Leu-Arg-Arg-7-amino-4-methylcoumarin (Boc-Leu-Arg-Arg-AMC) for trypsin-like (T-L) activity, and benzyloxycarbonyl-L-leucyl-L-leucyl-L-glutamyl-7-amino-4-methylcoumarin (Z-Leu-Leu-Glu-AMC) for caspase-like (C-L) activity. The excitation wavelength was set at 360 nm and the fluorescence emission wavelength of AMC was detected at 460 nm. The fluorescence of free AMC released during the enzymatic reaction was measured with a SpectraMax M5 fluorescent spectrophotometric plate reader (Molecular Devices, Sunnyvale, Calif.). AMC release rate was measured at 37° C. in a kinetic mode, recording every 5 minutes for 30 minutes. Experiments were performed in triplicate and repeated at least twice.
All mouse experiments were performed in accordance with approval from the Ontario Cancer Institute institutional animal review board. Five- to six-week-old male non-obese diabetic/severe combined immunodeficient (NOD/SCID) mice were grouped randomly (n=3 mice per group). Mice were administered vehicle (5% DMSO, 20% Cremophor) or compounds of Formula I at different doses either intravenously or by oral gavage, and venous blood samples (20-50 μL) were collected from each mouse over 24 hours. Blood samples were mixed with heparin (APP Pharmaceuticals; Schaumburg, Ill.) in 0.5 mL tubes in accordance with the manufacturer's instructions. After centrifugal separation at 3,000 g for 10 minutes, red blood cells (RBCs) in the bottom layer were transferred into a new tube and stored at −70° C. until use. RBCs were lysed with assay lysis buffer and incubated on ice for 30 minutes, mixing by vortex every 5 minutes, and then centrifuged at 12,000 g for 10 minutes. The supernatant was transferred to a 96-well plate and proteasome activity was measured as described above for tumor cell lysates.
Proteasome subunit activity (Chymotrypsin-like, Trypsin-like, Caspase-like, CT-L, T-L, C-L, respectively) were monitored over the course of 24 hrs following […] administration of representative compounds of Formula I. NOD/SCID mice were treated with compounds of Formula I (2 mg/kg by iv administration) or vehicle control and carfilzomib for up to 24 hours, as described above. Table 9 summarizes the data on pharmacodynamic activity of representative compounds of Formula I following a dose of 2 mg/kg intravenous (i.v) administration to mice. Data are presented as mean residual activity (SEM) relative to vehicle treated controls.

[2] = tested on: SNB-19; assay: NCI screening panel, SNB-19 (CNS Cancer); type: cell-based, human
Protocol: Representative compounds of Formula I were screened using the National Cancer Institute (NCI) screening panel, which consists of a panel of human tumor cell lines, representing leukemia, melanoma, and cancers of the lung, colon, ovary, breast, prostate and renal system.
After 24 h, two plates of each cell line are fixed in situ with TCA, to represent a measurement of the cell population for each cell line at the time of drug addition (Tz). Experimental drugs are solubilised in dimethyl sulfoxide at 400-fold the desired final maximum test concentration and stored frozen prior to use. At the time of drug addition, an aliquot of frozen concentrate is thawed and diluted to twice the desired final maximum test concentration with complete medium containing 50 μg/mL gentamicin. Additional four, 10-fold or ½ log serial dilutions are made to provide a total of five drug concentrations plus control. Aliquots of 100 μl of these different drug dilutions are added to the appropriate microtiter wells already containing 100 μl of medium, resulting in the required final drug concentrations.
Following drug addition, the plates are incubated for an additional 48 h at 37° C., 5% CO2, 95% air, and 100% relative humidity. For adherent cells, the assay is terminated by the addition of cold TCA (trichloroacetic acid). Cells are fixed in situ by the gentle addition of 50 μl of cold 50% (w/v) TCA (final concentration, 10% TCA) and incubated for 60 minutes at 4° C. The supernatant is discarded, and the plates are washed five times with tap water and air dried. Sulforhodamine B (SRB) solution (100 μl) at 0.4% (w/v) in 1% acetic acid is added to each well, and plates are incubated for 10 minutes at room temperature. After staining, unbound dye is removed by washing five times with 1% acetic acid and the plates are air dried. Bound stain is subsequently solubilised with 10 mM trizma base, and the absorbance is read on an automated plate reader at a wavelength of 515 nm. For suspension cells, the methodology is the same except that the assay is terminated by fixing settled cells at the bottom of the wells by gently adding 50 μl of 80% TCA (final concentration, 16% TCA). Using the seven absorbance measurements [time zero, (Tz), control growth, (C), and test growth in the presence of drug at the five concentration levels (Ti)], the percentage growth is calculated at each of the drug concentrations levels. Percentage growth inhibition is calculated as: [(Ti−Tz)/(C−Tz)]×100 for concentrations for which Ti>/=Tz and [(Ti−Tz)/Tz]×100 for concentrations for which Ti<Tz.
Three dose response parameters are calculated for each experimental agent. Growth inhibition of 50% (GI50) is calculated from [(Ti−Tz)/(C−Tz)]×100=50, which is the drug concentration resulting in a 50% reduction in the net protein increase (as measured by SRB staining) in control cells during the drug incubation. The drug concentration resulting in total growth inhibition (TGI) is calculated from Ti=Tz. The LC50 (concentration of drug resulting in a 50% reduction in the measured protein at the end of the drug treatment as compared to that at the beginning) indicating a net loss of cells following treatment is calculated from [(Ti−Tz)/Tz]×100=−50. Values are calculated for each of these three parameters if the level of activity is reached. However, if the effect is not reached or is exceeded, the value for that parameter is expressed as greater or less than the maximum or minimum concentration tested.

CC(C)C[C@H](NC(=O)[C@H](COC(F)F)NC(=O)CN1CCOCC1)C(=O)N[C@@H](COC(F)F)C(=O)N[C@@H](CC(C)C)C(=O)[C@@]1(C)CO1 [Example 1, (2S)—N-[(1S)-1-(difluoromethoxymethyl)-2-[[(1S)-3-methyl-1-[(2R)-2-methyloxirane-2-carbonyl]butyl]amino]-2-oxo-ethyl]-2-[[(2S)-3-(difluoromethoxy)-2-[(2-morpholinoacetyl)amino]propanoyl]amino]-4-methyl-pentanamide]
remaining activity at 2 mg/kg [1]: 100%
Log10GI50 [2]: −7.22
Log10LC50 [2]: >−4.00
Log10TGI50 [2]: >−4.00

CC(C)C[C@H](NC(=O)[C@H](COC(F)F)NC(=O)CN1CCOCC1)C(=O)N[C@@H](Cc1ccccc1)C(=O)N[C@@H](CC(C)C)C(=O)[C@@]1(C)CO1 [Example 2, (2S)-N-[(1S)-1-benzyl-2-[[(1S)-3-methyl-1-[(2R)-2-methyloxirane-2-carbonyl]butyl]-amino]-2-oxo-ethyl]-2-[[(2S)-3-(difluoromethoxy)-2-[(2-morpholinoacetyl)amino]propanoyl]amino]-4-methyl-pentanamide]
remaining activity at 2 mg/kg [1]: 100%
Log10GI50 [2]: −7.18
Log10LC50 [2]: >−4.00
Log10TGI50 [2]: >−4.00

CC(C)C[C@H](NC(=O)[C@H](COC(F)F)NC(=O)CN1CCOCC1)C(=O)N[C@@H](Cc1ccccc1)C(=O)N[C@@H](Cc1ccccc1)C(=O)[C@@]1(C)CO1 [Example 3, (2S)-N-[(1S)-1-benzyl-2-[[(1S)-1-benzyl-2-[(2R)-2-methyloxiran-2-yl]-2-oxo-ethyl]amino]-2-oxo-ethyl]-2-[[(2S)-3-(difluoromethoxy)-2-[(2-morpholinoacetyl)-amino]propanoyl]amino]-4-methyl-pentan-amide]
remaining activity at 2 mg/kg [1]: 100%
Log10GI50 [2]: −7.66
Log10LC50 [2]: >−4.00
Log10TGI50 [2]: −4.54

CC(C)C[C@H](NC(=O)[C@H](COC(F)F)NC(=O)CN1CCOCC1)C(=O)N[C@@H](COC(F)F)C(=O)N[C@@H](Cc1ccccc1)C(=O)[C@@]1(C)CO1 [Example 4, (2S)-N-[(1S)-2-[[(1S)-1-benzyl-2-[(2R)-2-methyloxiran-2-yl]-2-oxo-ethyl]amino]-1-(difluoromethoxymethyl)-2-oxo-ethyl]-2-[[(2S)-3-(difluoromethoxy)-2-[(2-mor-pholinoacetyl)amino]propanoyl]amino]-4 methyl-pentanamide]
remaining activity at 2 mg/kg [1]: 100%
Log10GI50 [2]: −7.14
Log10LC50 [2]: >−4.00
Log10TGI50 [2]: >−4.00

CC(C)C[C@H](NC(=O)[C@H](COC(F)F)NC(=O)[C@H](COC(F)F)NC(=O)[C@H](CCc1ccccc1)NC(=O)CN1CCOCC1)C(=O)[C@@]1(C)CO1 [Example 7, (2S)-N-[(1S)-1-(difluoromethoxymethyl)-2-[[(1S)-1-(difluoromethoxymethyl)-2-[[(1S)-3-methyl-1-[(2R)-2-methyloxirane-2-carbo-nyl]butyl]amino]-2-oxo-ethyl]amino]-2-oxo-ethyl]-2-[(2-morpholinoacetyl)amino]-4-phenyl-butanamide]
remaining activity at 2 mg/kg [1]: 100%
Log10GI50 [2]: −7.14
Log10LC50 [2]: >−4.00
Log10TGI50 [2]: >−4.00

CC(C)C[C@H](NC(=O)[C@H](Cc1ccccc1)NC(=O)[C@H](COC(F)F)NC(=O)[C@H](COC(F)F)NC(=O)CN1CCOCC1)C(=O)[C@@]1(C)CO1 [Example 11, (2S)-2-[[(2S)-3-(difluoromethoxy)-2-[[(2S)-3-(difluoromethoxy)-2-[(2-morpholinoacetyl)-amino]propanoyl]amino]propanoyl]amino]-N-[(1S)-3-methyl-1-[(2R)-2-methyloxirane-2-carbonyl]butyl]-3-phenyl-propanamide]
remaining activity at 2 mg/kg [1]: 100%
Log10GI50 [2]: −7.20
Log10LC50 [2]: >−4.00
Log10TGI50 [2]: >−4.00

CC(C)C[C@H](NC(=O)[C@H](COC(F)F)NC(=O)[C@H](COC(F)F)NC(=O)[C@H](COC(F)F)NC(=O)CN1CCOCC1)C(=O)[C@@]1(C)CO1 [Example 17, (2S)-3-(difluoromethoxy)-N-[(1S)-1-(difluoromethoxymethyl)-2-[[(1S)-1-(difluoro-methoxymethyl)-2-[[(1S)-3-methyl-1-[(2R)-2-methyloxirane-2-carbonyl]butyl]amino]-2-oxo-ethyl]amino]-2-oxo-ethyl]-2-[(2-mor-pholinoacetyl)amino]-propanamide]
remaining activity at 2 mg/kg [1]: 100%
Log10GI50 [2]: −7.16
Log10LC50 [2]: >−4.00
Log10TGI50 [2]: −4.67
